≈ marks a conversion by molar mass, not a printed value. Where “and” joins values, the source holds several entries; their conditions need not be identical. Identical values can stand only once. Like-named read-outs stand apart in the source and are kept apart here.
Legend:
murine L 1210 leukemia [1] = conditions: cited from earlier work
murine L 1210 leukemia [2] = conditions: cited from earlier work; for in vivo T/C: murine L 1210 leukemia
[3] = test system: human colon adenocarcinoma cell line (Lovo); assay: in vitro cytotoxic activity, MTT assay, Lovo cell line; assay type: cell-based; conditions: 144 hours drug-exposure
Procedure: (§1) The evaluation of the "in vitro" cytotoxic activity of the compounds of the invention was performed using a human colon adenocarcinoma cell line (Lovo) isolated from a metastatic nodule and a subline with aquired resistance to a number of antitumor agents, among which doxorubicin, VP-16 and vincristine. […] Cancer, (1986), 54, 515). The compounds were tested according to the MTT assay (Mosman, T. "Rapid Colorimetric assay for cellular growth and survival: application to proliferation and cytotoxicity assay", J. Immunol. Methods, (1983), 65, 55-63; Green. L.M., "Rapid Colorimetric assay for cell viability; application to the quantitation of cytotoxic and growth inhibitory lymphokines", J. Immunol. Methods, (1984), 70, 257-268) in comparison with ametantrone and doxorubicin.

Lovo/DX = assay: in vitro cytotoxic activity, MTT assay, resistant subline Lovo/DX; assay type: cell-based, human; conditions: for resistance index RI (ratio of the IC50 for the resistant cell line to the IC50 for the sensitive cell line): Lovo/DX versus Lovo
Procedure: as §1

P 388 MURINE LEUKEMIA = assay: P 388 murine leukemia model in vivo (iv/iv 1,4,7); set-up: species or system CD2Fl mice
Procedure: Studies of the biological activity "in vivo" of representative compounds of the invention were performed using the P 388 and L 1210 murine leukemia models.
(§2) P 388 Murine leukemia cells were intravenously (iv) injected in CD2Fl mice. Treatment was initiated approximately 24 hours after tumor transplantation and dosages of the drug were administered iv according to preestablished protocols, usually at 3-day intervals. The studies were done over a 60 day period and the date of death for each animal was recorded. The % T/C was determined using the median survival time (MST) for each group according to the formula % T/C = [(MST treated)/(MST control)] x 100. [formula]

MURINE LEUKEMIA L1210 = assay: L 1210 murine leukemia model in vivo (iv/iv 1,4,7); set-up: species or system CD2Fl mice
Procedure: The antitumor activity of representative compounds of this invention was evaluated also in the L 1210 murine leukemia model.
as §2, with “L 1210” for “P 388 Murine”, “mice and treatment” for “mice. Treatment”, “transplantation. Dosages” for “transplantation and dosages”, “drugs” for “drug”, “60-day” for “60 day”

[4] = in animals; cited from earlier work
[5] = P 388, iv on days 1,4,7, Dose 18 mg/kg/day
[6] = P 388, iv on days 1,4,7, Dose 27 mg/kg/day
[7] = L1210, iv on days 1,4,7, Dose 40 mg/kg/day
[8] = L1210, iv on days 1,4,7, Dose 60 mg/kg/day
[9] = P 388, iv on days 1,4,7, Dose 2 mg/kg/day
[10] = P 388, iv on days 1,4,7, Dose 3 mg/kg/day
[11] = P 388, iv on days 1,4,7, Dose 4 mg/kg/day
[12] = L1210, iv on days 1,4,7, Dose 2 mg/kg/day
[13] = L1210, iv on days 1,4,7, Dose 3 mg/kg/day

## CN(C)CCNc1ccc(NCCN(C)C)c2c1C(=O)c1cccnc1C2=O [Compound 5a]
Murine L 1210 leukemia [1]
  in vitro ID50: 0.16 µg/mL
Murine L 1210 leukemia [2]; as reported in table II
  antitumor activity in vivo (in words): inactive in vivo
Murine L 1210 leukemia [2]; Dose 50 mg/kg
  in vivo T/C: 130

## CCN(CC)CCNc1ccc(NCCN(CC)CC)c2c1C(=O)c1cccnc1C2=O [Compound 5b]
Murine L 1210 leukemia [1]
  in vitro ID50: 2.4 µg/mL
Murine L 1210 leukemia [2]; Dose 100 mg/kg
  in vivo T/C: toxic

## CN(C)CCCNc1ccc(NCCCN(C)C)c2c1C(=O)c1cccnc1C2=O [Compound 5c]
Murine L 1210 leukemia [1]
  in vitro ID50: 1.7 µg/mL

## CN(C)CCNc1ccc(NCCN(C)C)c2c1C(=O)c1ccccc1C2=O [Compound 6a]
Murine L 1210 leukemia [1]
  in vitro ID50: 0.08 µg/mL
Murine L 1210 leukemia [2]; Dose 30 mg/kg
  in vivo T/C: 150

## CCN(CC)CCNc1ccc(NCCN(CC)CC)c2c1C(=O)c1ccccc1C2=O [Compound 6b]
Murine L 1210 leukemia [1]
  in vitro ID50: 0.30 µg/mL

## CN(C)CCNc1ccc(NCCN(C)C)c2c1C(=O)c1cc[n+]([O-])cc1C2=O [Compound 7a, 6,9-bis[N-(2-dimethylaminoethyl)amino]benzo[g]isoquinoline-5,10-dione-2-oxide]
[3]
  IC50: 0.44 µg/mL (≈ 1.11 µM)
Lovo/DX; Homo sapiens, Lovo/DX resistant subline
  IC50: 2.68 µg/mL (≈ 6.74 µM)
Lovo/DX
  resistance index RI (ratio of the IC50 for the resistant cell line to the IC50 for the sensitive cell line): 6.1

## NCCNc1ccc(NCCN)c2c1C(=O)c1cc[n+]([O-])cc1C2=O.O=C(O)/C=C\C(=O)O.O=C(O)/C=C\C(=O)O [Compound 7b, 6,9-bis[N-(2-aminoethyl)amino]benzo[g]isoquinoline-5,10-dione-2-oxide dimaleate]
P 388 MURINE LEUKEMIA; [5]
  T/C% (range): 122%
  TOX (Number of toxic deaths/total number of mice): 0/8
P 388 MURINE LEUKEMIA; [6]
  T/C% (range): 133%
  TOX (Number of toxic deaths/total number of mice): 0/8
P 388 MURINE LEUKEMIA; P 388, iv on days 1,4,7, Dose 40 mg/kg/day
  TOX (Number of toxic deaths/total number of mice): 1/24
P 388 MURINE LEUKEMIA; P 388, iv on days 1,4,7, Dose 40 mg/kg/day, dimaleate, 40 mg/kg/day
  T/C% (range): 144% and 166% and 194%
P 388 MURINE LEUKEMIA; P 388, iv on days 1,4,7, Dose 60 mg/kg/day
  TOX (Number of toxic deaths/total number of mice): 0/17
P 388 MURINE LEUKEMIA; P 388, iv on days 1,4,7, Dose 60 mg/kg/day, dimaleate, 60 mg/kg/day
  T/C% (range): 200% and 225%
P 388 MURINE LEUKEMIA; P 388, iv on days 1,4,7, Dose 80 mg/kg/day
  TOX (Number of toxic deaths/total number of mice): 4/17
P 388 MURINE LEUKEMIA; P 388, iv on days 1,4,7, Dose 80 mg/kg/day, dimaleate, 80 mg/kg/day
  T/C% (range): 211% and 262%
MURINE LEUKEMIA L1210; [7]
  LTS: 0/8
  T/C% (range): 266%
  TOX (Number of toxic deaths/total number of mice): 0/8
MURINE LEUKEMIA L1210; [8]
  LTS: 0/10
  T/C% (range): 333%
  TOX (Number of toxic deaths/total number of mice): 0/10

## O=C1c2c(O)ccc(O)c2C(=O)c2c(NCCNCCO)ccc(NCCNCCO)c21 [MITOX, 5,8-dihydroxy-1,4-bis([2-(2-hydroxyethylamino)ethyl]amino]anthracene-9,10-dione]
P 388 MURINE LEUKEMIA; [9]
  T/C% (range): 171(154-212) %
  TOX (Number of toxic deaths/total number of mice): 0/50
P 388 MURINE LEUKEMIA; [10]
  T/C% (range): 185(167-217) %
  TOX (Number of toxic deaths/total number of mice): 12/84
P 388 MURINE LEUKEMIA; [11]
  T/C% (range): 118(89-133) %
  TOX (Number of toxic deaths/total number of mice): 20/24
MURINE LEUKEMIA L1210; [12]
  LTS: 0/8
  T/C% (range): 208%
  TOX (Number of toxic deaths/total number of mice): 0/8
MURINE LEUKEMIA L1210; [13]
  LTS: 0/8
  T/C% (range): 216%
  TOX (Number of toxic deaths/total number of mice): 0/8

## O=C1c2ccccc2C(=O)c2c(NCCNCCO)ccc(NCCNCCO)c21 [ametantrone, 1,4-bis{[2-(2-hydroxyethylamino)ethyl]amino]anthracene-9,10-dione]
[3]
  IC50: 0.33 ± 0.1 µg/mL (≈ 0.8 µM)
Lovo/DX
  resistance index RI (ratio of the IC50 for the resistant cell line to the IC50 for the sensitive cell line): 101.2
[4]
  less potent and cardiotoxic than mitoxantrone: about 10 fold

## COc1cccc2c1C(=O)c1c(O)c3c(c(O)c1C2=O)C[C@@](O)(C(=O)CO)C[C@@H]3O[C@H]1C[C@H](N)[C@H](O)[C@H](C)O1 [doxorubicin]
Lovo/DX
  resistance index RI (ratio of the IC50 for the resistant cell line to the IC50 for the sensitive cell line): 142.7

From EP0639183B1, “NITROGEN OXIDES OF AZA- AND DIAZA-ANTHRACENEDIONE DERIVATIVES, THEIR PREPARATION AND THEIR USE AS ANTITUMOR AGENTS” (BOEHRINGER MANNHEIM ITALIA S.P.A., priority 1991, dated 1992)
